One assay concerns the target T1, his-galectin-3 (Homo sapiens, UniProt P17931).
T1 construct: purchased Abcam
Description: TR-FRET assay (in vitro galectin-3 binding inhibitory activity test). The note with it: Table 1; compound at 20 μM; 60 nM his-galectin-3, 15 nM biotin-ASF; read-out: % Inhibitory activity (at 20 μM). Summed up: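 Compound is premixed with his-galectin-3 (60 nM final), then biotin-ASF (15 nM), Tb anti-His antibody (2 nM) and streptavidin-d2 (20 nM) are added. After at least 3.5 hours at RT in HEPES/NaCl buffer with Tween 20 and BSA, TR-FRET is read at 615/665 nm. DMSO serves as the uninhibited control, ASF omission as background.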
(In general: Time-resolved FRET reads energy transfer from a long-lived donor to a nearby acceptor.)
T1 sequence (P17931 whole entry): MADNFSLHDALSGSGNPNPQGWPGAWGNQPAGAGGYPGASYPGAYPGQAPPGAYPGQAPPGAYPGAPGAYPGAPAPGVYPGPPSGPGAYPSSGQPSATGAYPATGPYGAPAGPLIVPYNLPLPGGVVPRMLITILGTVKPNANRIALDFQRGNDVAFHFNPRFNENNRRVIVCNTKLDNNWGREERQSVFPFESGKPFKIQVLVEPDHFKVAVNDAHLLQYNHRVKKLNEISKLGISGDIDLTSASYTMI
Regarding `OC[C@H]1O[C@@]2(CCCCO2)[C@H](OCc2cccnc2)[C@@H](n2cc(-c3cc(F)c(F)c(F)c3)nn2)[C@H]1O` [Compound A58, (2R,3R,4S,5R,6S)-2-(hydroxymethyl)-5-(pyridin-3-ylmethoxy)-4-(4-(3,4,5-trifluorophenyl)-1H-1,2,3-triazol-1-yl)-1,7-dioxaspiro[5.5]undecan-3-ol], the inhibition at 20 µM was 25 to 50%.

As for `OC[C@H]1O[C@]2(OCC[C@H]2NCc2c(O)ccc(F)c2F)[C@H](O)[C@@H](n2cc(-c3cc(F)c(F)c(F)c3)nn2)[C@H]1O` [Compound A63, (4R,5S,7R,8R,9S,10R)-4-((2,3-difluoro-6-hydroxybenzyl)amino)-7-(hydroxymethyl)-9-(4-(3,4,5-trifluorophenyl)-1H-1,2,3-triazol-1-yl)-1,6-dioxaspiro[4.5]decane-8,10-diol], the inhibition at 20 µM is < 25%.

Turning to `O=C(Cc1ccc(Oc2ccccc2)cc1)N[C@@H]1CCO[C@]12O[C@H](CO)[C@H](O)[C@H](n1cc(-c3cc(F)c(F)c(F)c3)nn1)[C@H]2O` [Compound A148, N-((4R,5S,7R,8R,9S,10R)-8,10-dihydroxy-7-(hydroxymethyl)-9-(4-(3,4,5-trifluorophenyl)-1H-1,2,3-triazol-1-yl)-1,6-dioxaspiro[4.5]decan-4-yl)-2-(4-phenoxyphenyl)acetamide], the inhibition at 20 µM was in the range of 25 to 50%.

Regarding `O=C(N[C@@H]1CCO[C@]12O[C@H](CO)[C@H](O)[C@H](n1cc(-c3cc(F)c(F)c(F)c3)nn1)[C@H]2O)c1cccc(Br)c1` [Compound A150, 3-bromo-N-((4R,5S,7R,8R,9S,10R)-8,10-dihydroxy-7-(hydroxymethyl)-9-(4-(3,4,5-trifluorophenyl)-1H-1,2,3-triazol-1-yl)-1,6-dioxaspiro[4.5]decan-4-yl)benzamide], the inhibition at 20 µM was > 75%.

Consider `CC(=O)N[C@H]1C(O)O[C@H](CO)[C@@H](O[C@@H]2O[C@H](CO)[C@H](O)[C@H](O)[C@H]2O)[C@@H]1O` (stereo partly drawn) [LacNAc, N-acetyl-D-lactosamine, reference compound], for which the inhibition at 20 µM was < 25%.

`OC[C@H]1O[C@@]2(CCCN(Cc3cccc(Cl)c3)C2)[C@H](O)[C@@H](n2cc(-c3cc(F)c(F)c(F)c3)nn2)[C@H]1O` [Compound A143, (2R,3R,4S,5R,6R)-8-(3-chlorobenzyl)-2-(hydroxymethyl)-4-(4-(3,4,5-trifluorophenyl)-1H-1,2,3-triazol-1-yl)-1-oxa-8-azaspiro[5.5]undecane-3,5-diol]: the inhibition at 20 µM was < 25%.

`O=C(Cc1ccccc1Cl)N[C@@H]1CCO[C@]12O[C@H](CO)[C@H](O)[C@H](n1cc(-c3cc(F)c(F)c(F)c3)nn1)[C@H]2O` [Compound A112, 2-(2-chlorophenyl)-N-((4R,5S,7R,8R,9S,10R)-8,10-dihydroxy-7-(hydroxymethyl)-9-(4-(3,4,5-trifluorophenyl)-1H-1,2,3-triazol-1-yl)-1,6-dioxaspiro[4.5]decan-4-yl)acetamide]: the inhibition at 20 µM was in the range of 50 to 75%.

As to `OC[C@H]1O[C@@]2(CCCO2)[C@H](O)[C@@H](n2cc(-c3cc(F)c(F)c(F)c3)nn2)[C@H]1O` [Compound A12, (5S,7R,8R,9S,10R)-7-(hydroxymethyl)-9-(4-(3,4,5-trifluorophenyl)-1H-1,2,3-triazol-1-yl)-1,6-dioxaspiro[4.5]decane-8,10-diol], the inhibition at 20 µM fell in the range of 25 to 50%.

Take `O=C(N[C@@H]1CCO[C@]12O[C@H](CO)[C@H](O)[C@H](n1cc(-c3cc(F)c(F)c(F)c3)nn1)[C@H]2O)c1ccc(Oc2ccccc2)cc1` [Compound A120, N-((4R,5S,7R,8R,9S,10R)-8,10-dihydroxy-7-(hydroxymethyl)-9-(4-(3,4,5-trifluorophenyl)-1H-1,2,3-triazol-1-yl)-1,6-dioxaspiro[4.5]decan-4-yl)-4-phenoxybenzamide]: the inhibition at 20 µM fell in the range of 25 to 50%.

`O=C(N[C@@H]1CCO[C@]12O[C@H](CO)[C@H](O)[C@H](n1cc(-c3cc(F)c(F)c(F)c3)nn1)[C@H]2O)c1ccccc1-c1ccccc1` [Compound A121, N-((4R,5S,7R,8R,9S,10R)-8,10-dihydroxy-7-(hydroxymethyl)-9-(4-(3,4,5-trifluorophenyl)-1H-1,2,3-triazol-1-yl)-1,6-dioxaspiro[4.5]decan-4-yl)-[1.1′ biphenyl]-2-carboxamide]: the inhibition at 20 µM is 25 to 50%.

The same assay, now with this note: Table 2; compound at 20 μM; 60 nM his-galectin-3, 15 nM biotin-ASF; read-out: % Inhibitory activity (at 20 μM).
Take `Cc1sc2ccccc2c1C(=O)N[C@@H]1CCO[C@]12O[C@H](CO)[C@H](O)[C@H](n1cc(-c3cc(F)c(F)c(F)c3)nn1)[C@H]2O` [Compound A234, N-((4R,5S,7R,8R,9S,10R)-8,10-dihydroxy-7-(hydroxymethyl)-9-(4-(3,4,5-trifluorophenyl)-1H-1,2,3-triazol-1-yl)-1,6-dioxaspiro[4.5]decan-4-yl)-2-methylbenzo[b]thiophene-3-carboxamide]: the inhibition at 20 µM is > 75%.

Take `O=C(N[C@@H]1CCO[C@]12O[C@H](CO)[C@H](O)[C@H](n1cc(-c3cc(F)c(F)c(F)c3)nn1)[C@H]2O)c1ccc(F)c2ccccc12` [Compound A170, N-((4R,5S,7R,8R,9S,10R)-8,10-dihydroxy-7-(hydroxymethyl)-9-(4-(3,4,5-trifluorophenyl)-1H-1,2,3-triazol-1-yl)-1,6-dioxaspiro[4.5]decan-4-yl)-4-difluoro-1-naphthamide]: the inhibition at 20 µM was > 75%.

Consider `O=C(N[C@@H]1CCO[C@]12O[C@H](CO)[C@H](O)[C@H](n1cc(-c3cc(F)c(F)c(F)c3)nn1)[C@H]2O)c1cc2cccc(Cl)c2s1` [Compound A159, 7-chloro-N-((4R,5S,7R,8R,9S,10R)-8,10-dihydroxy-7-(hydroxymethyl)-9-(4-(3,4,5-trifluorophenyl)-1H-1,2,3-triazol-1-yl)-1,6-dioxaspiro[4.5]decan-4-yl)benzo[b]thiophene-2-carboxamide], for which the inhibition at 20 µM is 50 to 75%.

For the compound `O=C(N[C@@H]1CCO[C@]12O[C@H](CO)[C@H](O)[C@H](n1cc(-c3cc(F)c(F)c(F)c3)nn1)[C@H]2O)c1coc2ccc(Br)cc12` [Compound A180, 5-bromo-N-((4R,5S,7R,8R,9S,10R)-8,10-dihydroxy-7-(hydroxymethyl)-9-(4-(3,4,5-trifluorophenyl)-1H-1,2,3-triazol-1-yl)-1,6-dioxaspiro[4.5]decan-4-yl)benzofuran-3-carboxamide], the inhibition at 20 µM was > 75%.

With `O=C(N[C@@H]1CCO[C@]12O[C@H](CO)[C@H](O)[C@H](n1cc(-c3cc(F)c(F)c(F)c3)nn1)[C@H]2O)c1sc2ccccc2c1Br` [Compound A181, 3-bromo-N-((4R,5S,7R,8R,9S,10R)-8,10-dihydroxy-7-(hydroxymethyl)-9-(4-(3,4,5-trifluorophenyl)-1H-1,2,3-triazol-1-yl)-1,6-dioxaspiro[4.5]decan-4-yl)benzo[b]thiophene-2-carboxamide], the inhibition at 20 µM was > 75%.

For the compound `O=C(N[C@@H]1CCO[C@]12O[C@H](CO)[C@H](O)[C@H](n1cc(-c3cc(F)c(F)c(F)c3)nn1)[C@H]2O)c1cccc2ccncc12` [Compound A246, N-((4R,5S,7R,8R,9S,10R)-8,10-dihydroxy-7-(hydroxymethyl)-9-(4-(3,4,5-trifluorophenyl)-1H-1,2,3-triazol-1-yl)-1,6-dioxaspiro[4.5]decan-4-yl)isoquinoline-8-carboxamide], the inhibition at 20 µM is > 75%.

Take `Cn1cc(C(=O)N[C@@H]2CCO[C@]23O[C@H](CO)[C@H](O)[C@H](n2cc(-c4cc(F)c(F)c(F)c4)nn2)[C@H]3O)c2cc(Cl)ccc21` [Compound A233, 5-chloro-N-((4R,5S,7R,8R,9S,10R)-8,10-dihydroxy-7-(hydroxymethyl)-9-(4-(3,4,5-trifluorophenyl)-1H-1,2,3-triazol-1-yl)-1,6-dioxaspiro[4.5]decan-4-yl)-1-methyl-1H-indole-3-carboxamide]: the inhibition at 20 µM fell in the range of 50 to 75%.

Regarding `O=C(N[C@@H]1CCO[C@]12O[C@H](CO)[C@H](O)[C@H](n1cc(-c3cc(F)c(F)c(F)c3)nn1)[C@H]2O)c1cccc2cnccc12` [Compound A247, N-((4R,5S,7R,8R,9S,10R)-8,10-dihydroxy-7-(hydroxymethyl)-9-(4-(3,4,5-trifluorophenyl)-1H-1,2,3-triazol-1-yl)-1,6-dioxaspiro[4.5]decan-4-yl)isoquinoline-5-carboxamide], the inhibition at 20 µM is > 75%.

Staying with this assay, now noted: Table 3, found values; compound at 20 μM; 60 nM his-galectin-3, 15 nM biotin-ASF; read-out: % Inhibitory activity (at 20 μM).
On to `O=C(N[C@@H]1CCO[C@]12O[C@H](CO)[C@H](O)[C@H](n1cc(-c3cc(F)c(F)c(F)c3)nn1)[C@H]2O)c1ccc(F)c2ccccc12` [Compound A170, N-((4R,5S,7R,8R,9S,10R)-8,10-dihydroxy-7-(hydroxymethyl)-9-(4-(3,4,5-trifluorophenyl)-1H-1,2,3-triazol-1-yl)-1,6-dioxaspiro[4.5]decan-4-yl)-4-difluoro-1-naphthamide], for which the inhibition at 20 µM is 85.3%.

For the compound `O=C(Cc1ccccc1Cl)N[C@@H]1CCO[C@]12O[C@H](CO)[C@H](O)[C@H](n1cc(-c3cc(F)c(F)c(F)c3)nn1)[C@H]2O` [Compound A112, 2-(2-chlorophenyl)-N-((4R,5S,7R,8R,9S,10R)-8,10-dihydroxy-7-(hydroxymethyl)-9-(4-(3,4,5-trifluorophenyl)-1H-1,2,3-triazol-1-yl)-1,6-dioxaspiro[4.5]decan-4-yl)acetamide], the inhibition at 20 µM came to 53.8%.

The assay is the same for the next values; noted with them: read-out: % Inhibitory activity (at 20 μM), Table 1; compound at 20 μM; 60 nM his-galectin-3, 15 nM biotin-ASF.
Take `O=C(N[C@@H]1CCO[C@]12O[C@H](CO)[C@H](O)[C@H](n1cc(-c3cc(F)c(F)c(F)c3)nn1)[C@H]2O)c1cccc(Cl)c1` [Compound A119, 3-chloro-N-((4R,5S,7R,8R,9S,10R)-8,10-dihydroxy-7-(hydroxymethyl)-9-(4-(3,4,5-trifluorophenyl)-1H-1,2,3-triazol-1-yl)-1,6-dioxaspiro[4.5]decan-4-yl)benzamide]: the inhibition at 20 µM is > 75%.

Consider `C[C@@H](O[C@@H]1[C@@H](n2cc(-c3cc(F)c(F)c(F)c3)nn2)[C@@H](O)[C@@H](CO)O[C@@]12CCCCO2)C(=O)O` [Compound A83, (R)-2-(((2R,3R,4S,5R,6S)-3-hydroxy-2-(hydroxymethyl)-4-(4-(3,4,5-trifluorophenyl)-1H-1,2,3-triazol-1-yl)-1,7-dioxaspiro[5.5]undecan-5-yl)oxy)propanoic acid], for which the inhibition at 20 µM was in the range of 25 to 50%.

Regarding `CC(O[C@@H]1[C@@H](n2cc(-c3cc(F)c(F)c(F)c3)nn2)[C@@H](O)[C@@H](CO)O[C@@]12CCCO2)C(=O)O` (stereo partly drawn) [Compound A66, 2-(((5S,7R,8R,9S,10R)-8-hydroxy-7-(hydroxymethyl)-9-(4-(3,4,5-trifluorophenyl)-1H-1,2,3-triazol-1-yl)-1,6-dioxaspiro[4.5]decan-10-yl)oxy)propanoic acid], the inhibition at 20 µM lay in the range of 25 to 50%.

The assay is the same for the next values; noted with them: read-out: % Inhibitory activity (at 20 μM), Table 3, found values; compound at 20 μM; 60 nM his-galectin-3, 15 nM biotin-ASF.
As to `O=C(N[C@@H]1CCO[C@]12O[C@H](CO)[C@H](O)[C@H](n1cc(-c3cc(F)c(F)c(F)c3)nn1)[C@H]2O)c1cccc(Cl)c1` [Compound A119, 3-chloro-N-((4R,5S,7R,8R,9S,10R)-8,10-dihydroxy-7-(hydroxymethyl)-9-(4-(3,4,5-trifluorophenyl)-1H-1,2,3-triazol-1-yl)-1,6-dioxaspiro[4.5]decan-4-yl)benzamide], the inhibition at 20 µM is 93.7%.

The values are drawn from US20250026778A1 (TIUMBIO CO., LTD., priority 2021, published 2025).
